Columns and labels:
[1] = biological target: T1, recombinant CYP1B1 (Homo sapiens, UniProt Q16678); assay: CYP1B1 stability: thermal melt by circular dichroism
T1 sequence (Q16678 51-543 limits assumed): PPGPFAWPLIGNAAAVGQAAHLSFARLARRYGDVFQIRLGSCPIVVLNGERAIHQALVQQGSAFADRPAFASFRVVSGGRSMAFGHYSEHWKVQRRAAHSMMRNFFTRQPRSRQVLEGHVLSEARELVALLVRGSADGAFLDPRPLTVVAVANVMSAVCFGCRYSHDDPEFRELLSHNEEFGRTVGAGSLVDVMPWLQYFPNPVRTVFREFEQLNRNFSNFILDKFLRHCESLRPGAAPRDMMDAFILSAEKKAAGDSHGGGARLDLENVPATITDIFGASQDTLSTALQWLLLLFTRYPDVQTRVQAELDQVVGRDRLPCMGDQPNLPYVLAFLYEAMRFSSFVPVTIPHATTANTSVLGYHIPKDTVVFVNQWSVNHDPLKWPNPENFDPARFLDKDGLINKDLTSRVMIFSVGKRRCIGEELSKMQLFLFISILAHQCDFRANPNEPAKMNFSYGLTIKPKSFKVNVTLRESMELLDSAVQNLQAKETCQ
Description: Circular Dichroism (CD) was used to monitor changes in the secondary structure with increasing temperature. […] CYP1B1 was expressed and purified as reported. […] Spectra were taken scanning from 200 to 260 nm in duplicate. The temperature was increased followed by a 3 min equilibration period before spectra acquisition. The ellipticity values at 230 nm were plotted against temperature and fit to determine the Tm (Prism).

[2] = Stability of complexes at 37 °C in the dark (HPLC, UV/Vis); format: physicochemical; conditions: for Stability, % remaining at 24 h: 37 °C in H2O, dark
Description: The stability of each complex was assessed over 24 h under aqueous conditions at 37 °C (Supplementary Figs. 12–15). […] Given the potency of the caged inhibitor, thermal stability is of critical importance, making complex 6 the preferred photocaged candidate.
Opti-MEM with 2% fetal bovine serum (right) at 37 °C in the dark over the course of 0 (blue line) to 24 h (black dashed line). Compounds were tested in triplicate (n = 3), the data for one replicate are presented. Complexes 4 and 5 slowly degraded in the experiment condition (see HPLC traces, Figures S13–14). The decrease in absorbance for complex 6 is explained by the slow aggregation of the compound in the 96-well plate.
(1 picture or pasted object on this page, not shown here)
Supplementary Figure 13. a HPLC chromatogram analysis of stability of 4 (50 µM in di-H2O) before (black dashed line, purity > 92 % ) and after incubation at 37 °C for 24 hours (red line). At 24 hours, 43 % of 4 was […]
Supplementary Figure 14. HPLC chromatogram analysis of stability of 5 (50 µM in di-H2O) before (black dashed line, purity > 97 %) and after incubation at 37 °C for 24 hours (red line). At 24 hours, 50 % of 5 was observed […]
Supplementary Figure 15. HPLC chromatogram analysis of stability of 6 (40 µM in di-H O : MeCN mixture (4:1), […]
MeCN was added to reduce the aggregation) before (black dashed line, purity > 99.5 %) and after incubation at 37 °C for 24 hours. At 24 hours, less than 2 % degradation was observed (calculated by area, detection wavelength = […]
Supplementary Figure 16. HPLC chromatogram analysis of stability of 6 (40 µM) in 5 % DMSO / di-H2O with a 100 μM GSH, b 100 μM imidazole and c acidic condition (pH = 1) after incubation at 37 °C for 72 hours. Less than […]
detection wavelength = 280 nm). […]
imidazole and c acidic condition (pH = 1) after incubation at 37 °C for 72 hours. d At 72 hours less than 7 % degradation was observed by HPLC at pH = 1 (calculated by area, detection wavelength = 280 nm). Compounds were tested in triplicate (n = 3), the data for one replicate are presented.

SMILES | increase of thermal stability of CYP1B1 ([1]; 10 μM compound) [°C] | Tm ([1]; recombinant CYP1B1 + 10 µM compound, no compound 47.9) | Stability, % remaining at 24 h ([2]; HPLC) [%] | degradation with GSH ([2]; 5 % DMSO / di-H2O, 100 μM GSH, 37 °C, 72 hours) | degradation with imidazole ([2]; 5 % DMSO / di-H2O, 100 μM imidazole, 37 °C, 72 hours) | degradation at 24 hours ([2]; 37 °C, di-H2O : MeCN mixture (4:1), HPLC)
COc1ccc(C=Cc2ccncc2)c(OC)c1 [Compound 3] | 2 | 50.4 +/− 0.26 °C | – | – | – | –
COc1ccc(/C=C/c2cc[n+]([Ru-4]345([n+]6ccccc6-c6cccc([n+]63)-c3cccc[n+]34)[n+]3c(cc(C(=O)[O-])c4ccccc43)-c3cc(C(=O)[O-])c4ccccc4[n+]35)cn2)c(OC)c1 [Compound 5] | – | – | 50 | – | – | –
COc1ccc(/C=C/c2cc[n+]([Ru-4]345([n+]6ccccc6-c6cccc([n+]63)-c3cccc[n+]34)[n+]3c(cc(C(=O)[O-])c4ccccc43)-c3cc(C(=O)[O-])c4ccccc4[n+]35)cc2)c(OC)c1 [Compound 6] | – | – | 98.6 | less than 2% | less than 2% | less than 2%

Reference: PMC9233675, “Ru(II) photocages enable precise control over enzyme activity with red light” (Nature Communications, 2022)
